{"source": "patent US20180231524A1", "about": "“IN VITRO METHODS OF IDENTIFYING MODULATORS OF NEUROMUSCULAR JUNCTION ACTIVITY” (MEMORIAL SLOAN-KETTERING CANCER CENTER, priority 2015, published 2018)", "key": {"rodent GSK3β homologs": {"tested_on": "rodent GSK3β homologs", "conditions": "cited from earlier work"}, "[1]": {"tested_on": "co-cultures of MNs with adult-derived myoblasts (hMA)", "assay": "myasthenia gravis model: light-induced muscle contraction in co-cultures", "assay_type": "cell-based, human", "conditions": "PYR 10 μM on day 3; cultures treated with MG IgG (#1 & 2 combined) and complement; n=8", "description": "Next we sought to address whether the functional neuromuscular co-cultures were suitable to model a classic human neuromuscular disease. Myasthenia gravis (MG) (Toyka et al., 1977; Verschuuren et al., 2013) is caused by the emergence of autoantibodies against proteins in the neuromuscular junction (e.g. the acetylcholine receptor, AChR). Binding of the pathogenic antibody to AChR activates the complement cascade, resulting in destruction of the neuromuscular endplate (Sahashi et al., 1980), which ultimately causes progressive muscle weakness in patients. We therefore quantified light-induced muscle contractions in functional co-cultures of MNs with adult-derived myoblasts (hMA) before (FIG. 4A, D) and after the incubation with IgG fractions (200 nM total IgG) from two MG patients with clearly elevated AChR antibody titers (#1 and #2). Sandoglobulin (SG) polyvalent IgG served as control. […] Next, we assessed if the myasthenic phenotype was reversible after washout of MG IgG and complement, mimicking plasmapheresis therapy (Gold et al., 2008). […]\nMaturing co-cultures were observed under 10× brightfield illumination while intermittently opening the shutter for fluorescent light (470 nm, 2mW/mm^2, approx. 300 ms pulse). […] For the quantification of movement multiple representative high contrast regions were automatically traced (MetaMorph Software). […]"}, "[2]": {"tested_on": "myofibers in MN co-cultures with adult muscle (hMA)", "assay": "myasthenia gravis model: calcium imaging", "assay_type": "cell-based, human", "conditions": "MG#1 IgG and complement cultures", "procedure": "To further characterize the myasthenic phenotype we performed calcium imaging experiments. […] Therefore cultures were pretreated with control and MG#1 IgG and human complement for 2 days. Calcium imaging was performed in regions with similar amounts of muscle fibers and dense innervation (FIG. 4K, L). […] In addition, the percentage of reactive fibers was reduced in cultures treated with MG#1 IgG and complement compared to controls (FIG. 4N, CTRL 78% vs. MG 32%, two-tailed unpaired t test, p<0.001, t=4.79). […] Finally we sought to confirm the complement attack on the neuromuscular junction. For this purpose, cultures treated with MG#1 IgG and human complement as well as cultures treated with CTRL IgG and human complement for 24 h were stained with an antibody recognizing the human complement fragment C3c. […] (FIG. 4O, P).\n(§1) Myotubes or co-cultures on glass coverslips were incubated with the ratiometric calcium dye Fura-2 and imaged under continuous perfusion in normal Tyrode's solution. Myotubes were stimulated by acetylcholine. Co-cultures were illuminated for optogenetic stimulation for 10 ms at 470 nm (4 mW/mm2) every 5 s.\nSerum (containing complement) from 5 healthy donors was pooled and added to the media where indicated (2% v/v). […]"}, "[3]": {"tested_on": "co-cultures of ChR2-expressing hESC-derived spinal motorneurons with human adult (hMA) and fetal (hMF) myofibers", "assay": "light-induced muscle twitches in neuromuscular co-cultures", "assay_type": "cell-based", "conditions": "2 μM, optogenetic stimulation 470 nm, all tested cultures", "procedure": "To establish the neuromuscular co-culture, we used the purified ChR2-expressing spinal motorneurons (day 20-25) and plated them onto pre-differentiated skeletal myofibers (day 5-10). After plating, hESC-derived spinal MN cell bodies mostly remained within the neuronal clusters but extended axons across the adult and fetal muscle (up to 2 mm within the first week, FIG. 3A, E). Co-cultures were tested for the establishment of neuromuscular connectivity in weekly intervals. For this purpose the cultures were observed under bright field illumination and intermittently stimulated with blue light pulses. Six to eight weeks after initiation of the co-culture, the elongated cylindrical myoblast-derived muscle fibers remained morphologically intact and started to contract in response optogenetic stimulation (470 nm, 0.2 Hz, 300 ms pulse width). FIGS. 3B, F show mature co-cultures with both muscle types. FIG. 3C, G show the quantification of muscle twitches of individual fibers from such cultures. The lower panels show long term experiments over 8.5 min (FIG. 3C at 0.2 Hz, FIG. 3G at 0.1 Hz). […]\nMaturing co-cultures were observed under 10× brightfield illumination while intermittently opening the shutter for fluorescent light (470 nm, 2mW/mm^2, approx. 300 ms pulse). […] For the quantification of movement multiple representative high contrast regions were automatically traced (MetaMorph Software)."}, "[4]": {"tested_on": "myofibers in functional neuromuscular co-cultures", "assay": "calcium imaging in neuromuscular co-cultures under optogenetic stimulation", "assay_type": "cell-based, human", "conditions": "470 nm optogenetic stimulation, Fura2; 6/6 cultures", "procedure": "(§2) We next characterized key physiologic parameters in the functional neuromuscular cultures. Matured co-cultures were incubated with the calcium dye Fura2 and mounted into an imaging chamber for continuous perfusion. […] The lower panel of FIG. 3J confirms long-term stability of neuro-muscular excitability in a calcium imaging experiment over 45 minutes. In a separate study, skeletal myotubes (n=5), identified by their cylindrical and striated appearance under phase contrast microscopy and by their ability to undergo light-induced twitching were selected for intracellular recordings (FIG. 3K). Light-responsive myotubes were impaled with sharp electrodes and muscle APs were recorded during 447 nm optogenetic stimulation at frequencies from 0.2 to 2 Hz. Spike fidelity was 100% at 0.2 Hz, 93.3±6.7% at 0.5 Hz, 75±15.0% at 1 Hz and 80±10.0% at 2 Hz. […] To address the stability of neuromuscular connectivity over the course of several days and weeks, contractile regions (n=7) were assessed every 5 days.\nas §1"}, "[5]": {"tested_on": "light-responsive skeletal myotubes in neuromuscular co-cultures", "assay": "sharp electrode recording of light-induced myofiber action potentials", "assay_type": "cell-based, human", "conditions": "2 μM; 447 nm optogenetic stimulation 0.2 to 2 Hz", "procedure": "as §2\nOn matured EYFP+ MNs whole-cell current clamp recordings were performed at room temperature. Light-evoked APs were elicited using a 447 nm diode laser (OEM Laser) with light pulses of 5 ms at approximately 1 mW/mm2. Myotubes contracting in response to light stimulation were impaled with a sharp electrode for intracellular recordings."}}}
{"compound": "Cc1c[nH]c(-c2cnc(NCCNc3ccc(C#N)cn3)nc2-c2ccc(Cl)cc2Cl)n1", "note": "[CHIR99021, 6-(2-(4-(2,4-dichlorophenyl)-5-(4-methyl-1H-imidazol-2-yl)pyrimidin-2-ylamino)ethylamino)nicotinonitrile]", "values": [{"measurement": "IC50 values against rodent GSK3β homologs", "setting": "rodent GSK3β homologs", "result": "nanomolar"}]}
{"compound": "CN(C)C(=O)Oc1ccc[n+](C)c1", "note": "[pyridostigmine]", "values": [{"measurement": "change of movement after pyridostigmine in MG cultures", "setting": "[1]", "result": "+22%"}, {"measurement": "percentage of reactive fibers after PYR in MG cultures", "setting": "[2]", "result": "tendency towards a higher percentage of reactive fibers, which did not reach significance"}, {"measurement": "light-induced calcium spike after PYR in MG cultures", "setting": "[2]; n=8", "result": "small but significant increase"}]}
{"compound": "CC(=O)O[C@H]1C[C@@H]2CC[C@@H]3[C@H](CC[C@@]4(C)[C@H]3C[C@H]([N+]3(C)CCCCC3)[C@@H]4OC(C)=O)[C@@]2(C)C[C@@H]1N1CCCCC1", "note": "[vecuronium]", "values": [{"measurement": "light induced muscle twitches", "setting": "[3]", "result": "completely blocked"}, {"measurement": "light induced muscle twitches", "setting": "[3]; listed as Vecuronium", "result": "blocks light-evoked contractility"}, {"measurement": "light-evoked calcium spikes in myofibers", "setting": "[4]", "result": "could be blocked"}, {"measurement": "light-induced APs in myofibers", "setting": "[5]", "result": "completely blocked light-induced APs in myofibers in a reversible manner"}]}
